Test results from PubChem BioAssay AID1963839 (Molecular Pharmacology Branch, DTP, NCI, 2024).

Tested on: 817829-284-R-J1-PDC complex spheroid viability
Assay: Anticancer human tumor 817829-284-R-J1-PDC patient-derived colon adenocarcinoma cell line growth inhibition [POLQ]
Conditions: for IC50: curve of first compound; for viability, T/C: stronger effect = lower value; active means viability on the fitted dose curve at most 10% of control; inactive means the rest
Outline: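 Three-cell-type spheroids modelling solid tumor plus stroma served as the readout system; POL inhibitors were tested individually and in combination, concentration ranges set by clinical Cmax where known.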

[1] = second compound 0.0316 µM, first compound 0.00316 µM
[2] = second compound 0.0316 µM, first compound 0.01 µM
[3] = second compound 0.0316 µM, first compound 0.0316 µM
[4] = second compound 0.0316 µM, first compound 0.1 µM
[5] = second compound 0.1 µM, first compound 0.00316 µM
[6] = second compound 0.1 µM, first compound 0.01 µM
[7] = second compound 0.1 µM, first compound 0.0316 µM
[8] = second compound 0.1 µM, first compound 0.1 µM
[9] = second compound 0.316 µM, first compound 0.00316 µM
[10] = second compound 0.316 µM, first compound 0.01 µM
[11] = second compound 0.316 µM, first compound 0.0316 µM
[12] = second compound 0.316 µM, first compound 0.1 µM
[13] = second compound 1 µM, first compound 0.00316 µM
[14] = second compound 1 µM, first compound 0.01 µM
[15] = second compound 1 µM, first compound 0.0316 µM
[16] = second compound 1 µM, first compound 0.1 µM
[17] = second compound 3.16 µM, first compound 0.00316 µM
[18] = second compound 3.16 µM, first compound 0.01 µM
[19] = second compound 3.16 µM, first compound 0.0316 µM
[20] = second compound 3.16 µM, first compound 0.1 µM
[21] = second compound 10 µM, first compound 0.00316 µM
[22] = second compound 10 µM, first compound 0.01 µM
[23] = second compound 10 µM, first compound 0.0316 µM
[24] = second compound 10 µM, first compound 0.1 µM
[25] = second compound 0.0316 µM, first compound 0.316 µM
[26] = second compound 0.0316 µM, first compound 1 µM
[27] = second compound 0.1 µM, first compound 0.316 µM
[28] = second compound 0.1 µM, first compound 1 µM
[29] = second compound 0.316 µM, first compound 0.316 µM
[30] = second compound 0.316 µM, first compound 1 µM
[31] = second compound 1 µM, first compound 0.316 µM
[32] = second compound 1 µM, first compound 1 µM
[33] = second compound 3.16 µM, first compound 0.316 µM
[34] = second compound 3.16 µM, first compound 1 µM
[35] = second compound 10 µM, first compound 0.316 µM
[36] = second compound 10 µM, first compound 1 µM
[37] = second compound 0.0316 µM, first compound 3.16 µM
[38] = second compound 0.0316 µM, first compound 10 µM
[39] = second compound 0.1 µM, first compound 3.16 µM
[40] = second compound 0.1 µM, first compound 10 µM
[41] = second compound 0.316 µM, first compound 3.16 µM
[42] = second compound 0.316 µM, first compound 10 µM
[43] = second compound 1 µM, first compound 3.16 µM
[44] = second compound 1 µM, first compound 10 µM
[45] = second compound 3.16 µM, first compound 3.16 µM
[46] = second compound 3.16 µM, first compound 10 µM
[47] = second compound 10 µM, first compound 3.16 µM
[48] = second compound 10 µM, first compound 10 µM
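Further: spheroids exposed to compounds for 7 days.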
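Wherever viability, T/C is given: 100% = DMSO vehicle-treated spheroids.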

CC[C@@]1(O)C(=O)OCc2c1cc1n(c2=O)Cc2cc3c(CN(C)C)c(O)ccc3nc2-1 + Nc1ccc(C#CCN(C(=O)Cc2ncc(C(F)(F)F)cc2C(F)(F)F)c2ccc(F)cc2)nn1
8.46 nM: IC50 (second compound 0.0316 µM)
6.8 nM: IC50 (second compound 10 µM)
8.84 nM: IC50 (second compound 1 µM)
12 nM: IC50 (second compound 3.16 µM)
inactive: viability, T/C (second compound 0.0316 µM, first compound 0.000316 µM) 91.3% | viability, T/C (second compound 0.0316 µM, first compound 0.001 µM) 99% | viability, T/C [1] 85.9% | viability, T/C [2] 43.2% | viability, T/C [3] 24.2% | viability, T/C [4] 15.9% | viability, T/C (second compound 0.1 µM, first compound 0.000316 µM) 90.2% | viability, T/C (second compound 0.1 µM, first compound 0.001 µM) 86% | viability, T/C [5] 88.2% | viability, T/C [6] 48.9% | viability, T/C [7] 20.9% | viability, T/C [8] 17.3% | viability, T/C (second compound 0.316 µM, first compound 0.000316 µM) 106% | viability, T/C (second compound 0.316 µM, first compound 0.001 µM) 93.3% | viability, T/C [9] 85% | viability, T/C [10] 54.4% | viability, T/C [11] 21.3% | viability, T/C [12] 17.9% | viability, T/C (second compound 1 µM, first compound 0.000316 µM) 111% | viability, T/C (second compound 1 µM, first compound 0.001 µM) 115% | viability, T/C [13] 86.6% | viability, T/C [14] 45.5% | viability, T/C [15] 24.4% | viability, T/C [16] 15.7% | viability, T/C (second compound 3.16 µM, first compound 0.000316 µM) 95.1% | viability, T/C (second compound 3.16 µM, first compound 0.001 µM) 94.3% | viability, T/C [17] 82% | viability, T/C [18] 57.2% | viability, T/C [19] 20.1% | viability, T/C [20] 13.9% | viability, T/C (second compound 10 µM, first compound 0.000316 µM) 93.8% | viability, T/C (second compound 10 µM, first compound 0.001 µM) 91.2% | viability, T/C [21] 62.1% | viability, T/C [22] 43.2% | viability, T/C [23] 25.6% | viability, T/C [24] 15.1%
11 nM: IC50 (second compound 0.316 µM)
9.72 nM: IC50 (second compound 0.1 µM)

CCc1c2c(nc3ccc(O)cc13)-c1cc3c(c(=O)n1C2)COC(=O)[C@]3(O)CC + Nc1ccc(C#CCN(C(=O)Cc2ncc(C(F)(F)F)cc2C(F)(F)F)c2ccc(F)cc2)nn1
active: viability, T/C [4] 9.79% | viability, T/C [25] 5.25% | viability, T/C [26] 3.01% | viability, T/C [8] 8.52% | viability, T/C [27] 4.76% | viability, T/C [28] 2.98% | viability, T/C [12] 7.52% | viability, T/C [29] 4.9% | viability, T/C [30] 2.95% | viability, T/C [16] 7.16% | viability, T/C [31] 4.75% | viability, T/C [32] 2.54% | viability, T/C [20] 7.06% | viability, T/C [33] 4.44% | viability, T/C [34] 2.95% | viability, T/C [24] 7.06% | viability, T/C [35] 3.78% | viability, T/C [36] 2.98%
inactive: viability, T/C [1] 22.5% | viability, T/C [2] 14.5% | viability, T/C [3] 14.1% | viability, T/C [5] 20.9% | viability, T/C [6] 17.8% | viability, T/C [7] 12.8% | viability, T/C [9] 18.2% | viability, T/C [10] 19.1% | viability, T/C [11] 11.2% | viability, T/C [13] 22.2% | viability, T/C [14] 21.4% | viability, T/C [15] 14.4% | viability, T/C [17] 15.1% | viability, T/C [18] 16.2% | viability, T/C [19] 13% | viability, T/C [21] 21.7% | viability, T/C [22] 17% | viability, T/C [23] 10%
< 3.16 nM: IC50 (second compound 0.0316 µM) | IC50 (second compound 0.1 µM) | IC50 (second compound 0.316 µM) | IC50 (second compound 1 µM) | IC50 (second compound 3.16 µM) | IC50 (second compound 10 µM)

Nc1ccn(C2OC(CO)C(O)C2(F)F)c(=O)n1 (stereo not drawn) + Nc1ccc(C#CCN(C(=O)Cc2ncc(C(F)(F)F)cc2C(F)(F)F)c2ccc(F)cc2)nn1
< 31.6 nM: IC50 (second compound 0.0316 µM) | IC50 (second compound 0.1 µM) | IC50 (second compound 0.316 µM) | IC50 (second compound 1 µM) | IC50 (second compound 3.16 µM) | IC50 (second compound 10 µM)
active: viability, T/C [3] 3.03% | viability, T/C [4] 4.05% | viability, T/C [25] 4.41% | viability, T/C [26] 4.06% | viability, T/C [37] 2.78% | viability, T/C [38] 2.3% | viability, T/C [7] 3.67% | viability, T/C [8] 4.46% | viability, T/C [27] 3.95% | viability, T/C [28] 3.72% | viability, T/C [39] 3.07% | viability, T/C [40] 1.99% | viability, T/C [11] 3.79% | viability, T/C [12] 3.81% | viability, T/C [29] 4.1% | viability, T/C [30] 4.23% | viability, T/C [41] 2.51% | viability, T/C [42] 2.13% | viability, T/C [15] 3.62% | viability, T/C [16] 4.03% | viability, T/C [31] 4.21% | viability, T/C [32] 3.9% | viability, T/C [43] 2.69% | viability, T/C [44] 1.87% | viability, T/C [19] 4.08% | viability, T/C [20] 3.7% | viability, T/C [33] 3.44% | viability, T/C [34] 3.79% | viability, T/C [45] 2.78% | viability, T/C [46] 1.9% | viability, T/C [23] 5.53% | viability, T/C [24] 3.31% | viability, T/C [35] 3.9% | viability, T/C [36] 3.4% | viability, T/C [47] 3.17% | viability, T/C [48] 2.42%

O=C(c1cc(Cc2n[nH]c(=O)c3ccccc23)ccc1F)N1CCN(C(=O)C2CC2)CC1 + Nc1ccc(C#CCN(C(=O)Cc2ncc(C(F)(F)F)cc2C(F)(F)F)c2ccc(F)cc2)nn1
2540 nM: IC50 (second compound 0.1 µM)
5080 nM: IC50 (second compound 0.0316 µM)
4740 nM: IC50 (second compound 10 µM)
inactive: viability, T/C [3] 118% | viability, T/C [4] 96% | viability, T/C [25] 93.7% | viability, T/C [26] 91.6% | viability, T/C [37] 58.1% | viability, T/C [38] 32.9% | viability, T/C [7] 108% | viability, T/C [8] 103% | viability, T/C [27] 83.2% | viability, T/C [28] 66.8% | viability, T/C [39] 47% | viability, T/C [40] 27.4% | viability, T/C [11] 90.3% | viability, T/C [12] 94% | viability, T/C [29] 98.1% | viability, T/C [30] 93.5% | viability, T/C [41] 55% | viability, T/C [42] 30.9% | viability, T/C [15] 106% | viability, T/C [16] 94.5% | viability, T/C [31] 89.6% | viability, T/C [32] 85.2% | viability, T/C [43] 58.2% | viability, T/C [44] 27.8% | viability, T/C [19] 113% | viability, T/C [20] 104% | viability, T/C [33] 112% | viability, T/C [34] 92.5% | viability, T/C [45] 58.6% | viability, T/C [46] 26% | viability, T/C [23] 104% | viability, T/C [24] 94.8% | viability, T/C [35] 86.7% | viability, T/C [36] 94.8% | viability, T/C [47] 63.5% | viability, T/C [48] 25.1%
4010 nM: IC50 (second compound 0.316 µM)
4240 nM: IC50 (second compound 3.16 µM)
4530 nM: IC50 (second compound 1 µM)
